Results from PubChem BioAssay (NCI).
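Values below derive from 48-hour exposures of cells grown in 96-well plates, with endpoints linearly interpolated between the two concentrations bracketing the appropriate inhibition level. GI50 is the concentration that inhibits growth by half. TGI: concentration producing complete growth inhibition.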

Tests used:
Experiment in all cases: NCI tumour cell line growth inhibition, 48 h
NCI-H460 lung = test system: NCI-H460 lung
HCT-15 colon = test system: HCT-15 colon
OVCAR-5 ovarian = test system: OVCAR-5 ovarian
A498 renal = test system: A498 renal
M14 melanoma = test system: M14 melanoma
SW-620 colon = test system: SW-620 colon
HCT-116 colon = test system: HCT-116 colon
SK-OV-3 ovarian = test system: SK-OV-3 ovarian
DU-145 prostate = test system: DU-145 prostate
786-0 renal = test system: 786-0 renal
A549 NSCLC = test system: A549 NSCLC
COLO 205 colon = test system: COLO 205 colon
U251 CNS = test system: U251 CNS
SN12C renal = test system: SN12C renal
OVCAR-4 ovarian = test system: OVCAR-4 ovarian
CAKI-1 renal = test system: CAKI-1 renal
CCRF-CEM leukemia = test system: CCRF-CEM leukemia
MOLT-4 leukemia = test system: MOLT-4 leukemia
OVCAR-3 ovarian = test system: OVCAR-3 ovarian
UACC-62 melanoma = test system: UACC-62 melanoma
LOX IMVI melanoma = test system: LOX IMVI melanoma
UACC-257 melanoma = test system: UACC-257 melanoma
NCI-H23 lung = test system: NCI-H23 lung
MDA-MB-435 = test system: MDA-MB-435
HS 578T breast = test system: HS 578T breast
TK-10 renal = test system: TK-10 renal
HCC-2998 colon = test system: HCC-2998 colon
IGROV1 ovarian = test system: IGROV1 ovarian
HT29 colon = test system: HT29 colon
MCF7 breast = test system: MCF7 breast
HL-60(TB) leukemia = test system: HL-60(TB) leukemia
HOP-62 NSCLC = test system: HOP-62 NSCLC
SF-295 CNS = test system: SF-295 CNS
OVCAR-8 ovarian = test system: OVCAR-8 ovarian
HOP-92 NSCLC = test system: HOP-92 NSCLC
UO-31 renal = test system: UO-31 renal
MDA-MB-231 breast = test system: MDA-MB-231 breast
K-562 leukemia = test system: K-562 leukemia
SK-MEL-2 melanoma = test system: SK-MEL-2 melanoma
NCI-H226 lung = test system: NCI-H226 lung
SF-539 CNS = test system: SF-539 CNS
T-47D breast = test system: T-47D breast
RPMI-8226 leukemia = test system: RPMI-8226 leukemia
EKVX NSCLC = test system: EKVX NSCLC
NCI-H522 lung = test system: NCI-H522 lung
SNB-75 CNS = test system: SNB-75 CNS
SK-MEL-5 melanoma = test system: SK-MEL-5 melanoma
SNB-19 CNS = test system: SNB-19 CNS
NCI/ADR-RES ovarian = test system: NCI/ADR-RES ovarian
SF-268 CNS = test system: SF-268 CNS
KM12 colon = test system: KM12 colon
ACHN renal = test system: ACHN renal
SK-MEL-28 melanoma = test system: SK-MEL-28 melanoma

SMILES: CN(C)[C@@H]1C(=O)C(C(N)=O)=C(O)[C@@]2(O)C(=O)C3=C(O)c4c(O)cc(CN5CCc6ccccc6C5)c(Cl)c4C[C@H]3C[C@@H]12
- GI50 (NCI-H460 lung): 1.79 µM
- TGI (NCI-H460 lung): 3.4 µM
- GI50 (HCT-15 colon): 0.0531 µM
- TGI (HCT-15 colon): 2.36 µM
- GI50 (OVCAR-5 ovarian): 1.62 µM
- TGI (OVCAR-5 ovarian): 3.02 µM
- GI50 (A498 renal): 1.76 µM
- TGI (A498 renal): 3.29 µM
- GI50 (M14 melanoma): 1.61 µM
- TGI (M14 melanoma): 3.03 µM
- GI50 (SW-620 colon): 1.92 µM
- TGI (SW-620 colon): 3.6 µM
- GI50 (HCT-116 colon): 1.6 µM
- TGI (HCT-116 colon): 2.97 µM
- GI50 (SK-OV-3 ovarian): 1.73 µM
- TGI (SK-OV-3 ovarian): 3.18 µM
- GI50 (DU-145 prostate): 1.64 µM
- TGI (DU-145 prostate): 3.04 µM
- GI50 (786-0 renal): 1.76 µM
- TGI (786-0 renal): 3.3 µM

SMILES: S=c1nc(-c2ccccc2)oc(=NC2CCCCC2)n1C1CCCCC1
- GI50 (NCI-H460 lung): 2.93 µM
- TGI (NCI-H460 lung): 10.2 µM
- GI50 (A549 NSCLC): 2.26 µM
- TGI (A549 NSCLC): 8.21 µM
- GI50 (COLO 205 colon): 2.11 µM
- TGI (COLO 205 colon): 4.22 µM
- GI50 (U251 CNS): 3.85 µM
- TGI (U251 CNS): 15.2 µM
- GI50 (SN12C renal): 3.94 µM
- TGI (SN12C renal): 18.7 µM
- GI50 (OVCAR-4 ovarian): 5.56 µM
- TGI (OVCAR-4 ovarian): 61 µM
- GI50 (HCT-15 colon): 3.35 µM
- TGI (HCT-15 colon): 13.5 µM
- GI50 (CAKI-1 renal): 1.99 µM
- TGI (CAKI-1 renal): 6.38 µM
- GI50 (CCRF-CEM leukemia): 1.75 µM
- TGI (CCRF-CEM leukemia): 8.87 µM
- GI50 (MOLT-4 leukemia): 1.54 µM
- TGI (MOLT-4 leukemia): 6.01 µM
- GI50 (OVCAR-3 ovarian): 3.54 µM
- TGI (OVCAR-3 ovarian): 11.3 µM
- GI50 (UACC-62 melanoma): 5.92 µM
- TGI (UACC-62 melanoma): 21 µM
- GI50 (LOX IMVI melanoma): 4.89 µM
- TGI (LOX IMVI melanoma): 20.8 µM
- GI50 (UACC-257 melanoma): 2.31 µM
- TGI (UACC-257 melanoma): 5.98 µM
- GI50 (NCI-H23 lung): 4.21 µM
- TGI (NCI-H23 lung): 19.6 µM
- GI50 (MDA-MB-435): 3.36 µM
- TGI (MDA-MB-435): 8.82 µM
- GI50 (HS 578T breast): 3.3 µM
- TGI (HS 578T breast): 14.5 µM
- GI50 (TK-10 renal): 4.31 µM
- TGI (TK-10 renal): 8.57 µM
- GI50 (HCC-2998 colon): 3.79 µM
- TGI (HCC-2998 colon): 13.7 µM
- GI50 (OVCAR-5 ovarian): 8.54 µM
- TGI (OVCAR-5 ovarian): 30.3 µM
- GI50 (IGROV1 ovarian): 3 µM
- TGI (IGROV1 ovarian): 8.13 µM
- GI50 (HT29 colon): 4.1 µM
- TGI (HT29 colon): 14.8 µM
- GI50 (MCF7 breast): 3.2 µM
- TGI (MCF7 breast): 12.2 µM
- GI50 (HL-60(TB) leukemia): 1.9 µM
- TGI (HL-60(TB) leukemia): 5.29 µM
- GI50 (HOP-62 NSCLC): 5.9 µM
- TGI (HOP-62 NSCLC): 23.1 µM
- GI50 (A498 renal): 3.61 µM
- TGI (A498 renal): 13 µM
- GI50 (SF-295 CNS): 4.07 µM
- TGI (SF-295 CNS): 37.4 µM
- GI50 (M14 melanoma): 6.2 µM
- TGI (M14 melanoma): 27.8 µM
- GI50 (OVCAR-8 ovarian): 3.22 µM
- TGI (OVCAR-8 ovarian): 18.5 µM
- TGI (HOP-92 NSCLC): 0.079 µM
- GI50 (UO-31 renal): > 100 µM
- TGI (UO-31 renal): > 100 µM
- GI50 (SW-620 colon): 3.78 µM
- TGI (SW-620 colon): 14.6 µM
- GI50 (MDA-MB-231 breast): 3.69 µM
- TGI (MDA-MB-231 breast): 15.9 µM
- GI50 (K-562 leukemia): 5.25 µM
- TGI (K-562 leukemia): > 100 µM
- GI50 (SK-MEL-2 melanoma): 4.51 µM
- TGI (SK-MEL-2 melanoma): 17.8 µM
- GI50 (NCI-H226 lung): 17.5 µM
- TGI (NCI-H226 lung): 37.9 µM
- GI50 (SF-539 CNS): 5.73 µM
- TGI (SF-539 CNS): 20.4 µM
- GI50 (HCT-116 colon): 4.19 µM
- TGI (HCT-116 colon): 17.1 µM
- GI50 (T-47D breast): 3.85 µM
- TGI (T-47D breast): 21.4 µM
- GI50 (RPMI-8226 leukemia): 2.69 µM
- TGI (RPMI-8226 leukemia): 6.51 µM
- GI50 (EKVX NSCLC): 2.14 µM
- TGI (EKVX NSCLC): 12 µM
- GI50 (NCI-H522 lung): 4.8 µM
- TGI (NCI-H522 lung): 18.3 µM
- GI50 (SK-OV-3 ovarian): 5.05 µM
- TGI (SK-OV-3 ovarian): > 100 µM
- GI50 (SNB-75 CNS): 4.65 µM
- TGI (SNB-75 CNS): 17.5 µM
- GI50 (DU-145 prostate): 3.26 µM
- TGI (DU-145 prostate): 10.3 µM
- GI50 (SK-MEL-5 melanoma): 2.62 µM
- TGI (SK-MEL-5 melanoma): 9.87 µM
- GI50 (SNB-19 CNS): 5.05 µM
- TGI (SNB-19 CNS): 17.4 µM
- GI50 (NCI/ADR-RES ovarian): 5.01 µM
- TGI (NCI/ADR-RES ovarian): 23.4 µM
- GI50 (SF-268 CNS): 4.72 µM
- TGI (SF-268 CNS): 17.6 µM
- GI50 (786-0 renal): 4.46 µM
- TGI (786-0 renal): 16.2 µM
- GI50 (KM12 colon): 3.48 µM
- TGI (KM12 colon): 10.1 µM
- GI50 (ACHN renal): 4.14 µM
- TGI (ACHN renal): 14.2 µM
- GI50 (SK-MEL-28 melanoma): 14.3 µM
- TGI (SK-MEL-28 melanoma): 30.2 µM
